pIC50, pKi: −log10 of the molar value.
Assays:
Adenosine receptor A1 [1] = molecular target: T1, Adenosine receptor A1 (Homo sapiens, UniProt P30542); test: Displacement of [3H]DPCPX from human Adenosine A1 receptor expressed in CHO cells; format: cell-based
T1 sequence (P30542 whole entry): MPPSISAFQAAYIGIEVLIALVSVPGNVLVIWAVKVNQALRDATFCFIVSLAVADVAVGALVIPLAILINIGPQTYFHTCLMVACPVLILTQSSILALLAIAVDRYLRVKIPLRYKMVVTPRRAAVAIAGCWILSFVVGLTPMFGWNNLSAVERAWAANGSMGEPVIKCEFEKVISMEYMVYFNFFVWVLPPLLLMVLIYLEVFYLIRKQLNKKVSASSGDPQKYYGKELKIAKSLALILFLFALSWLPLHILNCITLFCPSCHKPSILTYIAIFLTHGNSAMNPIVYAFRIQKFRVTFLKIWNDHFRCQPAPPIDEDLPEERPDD

Adenosine receptor A3 [2] = molecular target: T2, Adenosine receptor A3 (Homo sapiens, UniProt P0DMS8); test: Inhibitory concentration as antagonistic activity against cAMP generation inhibited by IB-MECA in CHO cell membranes transfected with human Adenosine A3 receptor; format: functional, cell-based
T2 sequence (P0DMS8 whole entry): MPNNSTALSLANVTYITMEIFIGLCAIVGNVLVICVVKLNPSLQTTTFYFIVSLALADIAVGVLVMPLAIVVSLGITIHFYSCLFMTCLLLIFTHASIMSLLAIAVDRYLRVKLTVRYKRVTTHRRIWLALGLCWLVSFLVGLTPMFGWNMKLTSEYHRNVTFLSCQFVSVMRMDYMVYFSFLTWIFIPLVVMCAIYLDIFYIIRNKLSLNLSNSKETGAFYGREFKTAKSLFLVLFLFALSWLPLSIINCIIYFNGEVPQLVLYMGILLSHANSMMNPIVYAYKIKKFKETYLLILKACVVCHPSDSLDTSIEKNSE

[3] = molecular target: T3, Adenosine receptor A3 (Rattus norvegicus) (UniProt P28647); format: cell-based; conditions: CHO, 10 mM
T3 sequence (whole entry): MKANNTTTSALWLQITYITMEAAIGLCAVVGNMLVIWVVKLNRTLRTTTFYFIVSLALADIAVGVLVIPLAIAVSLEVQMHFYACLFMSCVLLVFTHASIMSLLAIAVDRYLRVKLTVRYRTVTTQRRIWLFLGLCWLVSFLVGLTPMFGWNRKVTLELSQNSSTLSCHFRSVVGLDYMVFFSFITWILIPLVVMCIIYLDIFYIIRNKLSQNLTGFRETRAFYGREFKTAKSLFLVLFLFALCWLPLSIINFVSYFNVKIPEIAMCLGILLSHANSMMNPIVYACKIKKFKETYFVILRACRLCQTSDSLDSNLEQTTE

[4] = molecular target: T4, Adenosine receptor A3 (Homo sapiens) (UniProt P0DMS8); conditions: CHO, 1 uM
T4 sequence (whole entry): T2 sequence (P0DMS8 whole entry)
Description: Percent inhibition of cAMP-accumulation in CHO cells expressing hA3 adenosine receptors by IB-MECA at 1 uM.

Adenosine receptor A2a [5] = molecular target: T5, Adenosine receptor A2a (Homo sapiens, UniProt P29274); test: Displacement of specific [3H]-SCH- 58261 binding at human Adenosine A2A receptor expressed in HEK293 cells; format: cell-based
T5 sequence (P29274 whole entry): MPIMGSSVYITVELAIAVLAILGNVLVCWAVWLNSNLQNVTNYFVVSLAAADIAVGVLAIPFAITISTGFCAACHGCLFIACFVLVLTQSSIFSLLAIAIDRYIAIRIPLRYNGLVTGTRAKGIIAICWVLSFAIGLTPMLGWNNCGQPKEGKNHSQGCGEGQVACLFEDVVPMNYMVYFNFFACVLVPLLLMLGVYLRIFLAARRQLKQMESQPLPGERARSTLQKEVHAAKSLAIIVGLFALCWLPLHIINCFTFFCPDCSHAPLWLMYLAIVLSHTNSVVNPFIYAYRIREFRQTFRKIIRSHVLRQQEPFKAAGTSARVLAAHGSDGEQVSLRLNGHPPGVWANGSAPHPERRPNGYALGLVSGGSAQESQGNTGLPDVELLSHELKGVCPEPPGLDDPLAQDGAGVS

Adenosine receptor A3 [6] = molecular target: T2, Adenosine receptor A3; test: Inhibitory concentration as antagonistic activity against cAMP generation inhibited by IB-MECA in CHO cell membranes transfected with human A3 receptor; format: functional, cell-based
Adenosine receptor A2a [7] = molecular target: T5, Adenosine receptor A2a; test: Displacement of [3H]-SCH- 58261 from human Adenosine A2A receptor expressed in HEK293 cells; format: cell-based
Adenosine receptor A2a [8] = molecular target: Adenosine receptor A2a (Rattus norvegicus, UniProt P30543)
Adenosine receptor A2a (Rattus norvegicus, UniProt P30543), sequence (P30543 whole entry): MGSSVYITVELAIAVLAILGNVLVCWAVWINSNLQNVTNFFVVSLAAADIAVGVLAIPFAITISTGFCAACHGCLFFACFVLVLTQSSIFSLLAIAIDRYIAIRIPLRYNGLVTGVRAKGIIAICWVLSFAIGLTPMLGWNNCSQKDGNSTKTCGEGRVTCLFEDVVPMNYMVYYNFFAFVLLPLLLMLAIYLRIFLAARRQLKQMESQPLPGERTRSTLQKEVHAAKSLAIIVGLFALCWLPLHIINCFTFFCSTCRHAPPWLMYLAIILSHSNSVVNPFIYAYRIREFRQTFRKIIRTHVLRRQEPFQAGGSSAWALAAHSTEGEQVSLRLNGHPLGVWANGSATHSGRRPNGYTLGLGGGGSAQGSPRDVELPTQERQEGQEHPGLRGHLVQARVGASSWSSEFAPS
Description: Displacement of [3H]-SCH- 58261 from Adenosine A2A receptor in rat striatal membranes

Adenosine receptor A1 [9] = molecular target: T6, Adenosine receptor A1 (Rattus norvegicus, UniProt P25099); test: Displacement of [3H]DPCPX from Adenosine A1 receptor of rat brain membranes; format: cell membranes, Membrane
T6 sequence (P25099 whole entry): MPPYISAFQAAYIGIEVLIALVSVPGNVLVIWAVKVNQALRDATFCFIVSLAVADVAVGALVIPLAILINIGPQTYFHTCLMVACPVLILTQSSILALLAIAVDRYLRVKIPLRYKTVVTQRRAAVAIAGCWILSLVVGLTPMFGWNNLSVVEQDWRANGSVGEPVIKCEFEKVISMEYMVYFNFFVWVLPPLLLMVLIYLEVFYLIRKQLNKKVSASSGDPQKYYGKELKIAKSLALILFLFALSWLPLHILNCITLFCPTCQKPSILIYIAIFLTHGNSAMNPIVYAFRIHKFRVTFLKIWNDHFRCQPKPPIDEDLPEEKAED

HEK293 [10] = test: Ratio of binding affinity for rat adenosine A1 and human adenosine A3 receptors expressed in HEK293 cells; format: cell-based
[11] = molecular target: T4, Adenosine receptor A3 (Homo sapiens); test: Percent inhibition of cAMP-accumulation in CHO cells by IB-MECA at 1 uM.; format: functional, cell-based
[12] = molecular target: Adenosine receptors; A1 & A3 (Homo sapiens) (UniProt P30542+P0DMS8); test: Ratio of binding affinity for human adenosine A1 and A3 receptors expressed in HEK293 cells; format: cell-based
HEK293 [13] = test: Ratio of binding affinity for rat adenosine A2A of striatal membranes and human adenosine A3 receptors expressed in HEK293 cells; format: cell-based
[14] = molecular target: T4, Adenosine receptor A3 (Homo sapiens); conditions: CHO, 1 uM; remark: listed apart in the source
Description: Perent inhibition of cAMP-accumulation in CHO cells expressing human Adenosine A3 receptor by IB-MECA at 1 uM.

[15] = molecular target: T4, Adenosine receptor A3 (Homo sapiens); test: Percent inhibition of cAMP-accumulation in CHO cells by IB-MECA at 1 uM; format: functional, cell-based

SMILES	pKi (Adenosine receptor A1 [1])	pIC50 (Adenosine receptor A3 [2])	inhibition [3]	inhibition [4]	pKi (Adenosine receptor A2a [5])	pIC50 (Adenosine receptor A3 [6])	pKi (Adenosine receptor A2a [7])	pKi (Adenosine receptor A2a [8])	pKi (Adenosine receptor A1 [9])	Ratio (HEK293 [10])	inhibition [11]	Ratio [12]	Ratio (HEK293 [13])	inhibition [14]	inhibition [15]
CCn1cc2c(nc(NC(=O)Nc3cccc(Cl)c3)n3nc(-c4ccco4)nc23)n1	6.60	7.82	36%	71%	6.73	–	–	–	–	–	–	–	–	–	–
CCCn1cc2c(nc(NC(=O)Nc3cccc(Cl)c3)n3nc(-c4ccco4)nc23)n1	7.52	–	20%	87%	–	8.28	5.91	< 5.00	–	–	–	–	–	–	–
CCn1cc2c(nc(NC(=O)Nc3ccc(OC)cc3)n3nc(-c4ccco4)nc23)n1	–	–	39%	88%	–	8.19	–	< 5.00	< 5.00	–	–	–	–	–	–
COc1ccc(NC(=O)Nc2nc3nn(CCCc4ccccc4)cc3c3nc(-c4ccco4)nn23)cc1	6.60	–	11%	–	5.99	–	–	–	–	76.4	56%	12.6	> 504	–	–
CCCn1cc2c(nc(NC(=O)Nc3ccc(OC)cc3)n3nc(-c4ccco4)nc23)n1	–	–	37%	–	–	–	–	–	–	–	–	–	–	89%	–
Nc1nc2nn(CCCc3ccccc3)cc2c2nc(-c3ccco3)nn12	8.52	–	32%	–	9.74	–	–	–	–	0.004	6%	0.001	0.0002	–	–
CCCn1cc2c(nc(N)n3nc(-c4ccco4)nc23)n1	8.00	7.40	2%	–	8.59	–	–	–	–	0.22	–	0.016	0.03	–	–
O=C(Nc1cccc(Cl)c1)Nc1nc2nn(CCc3ccccc3)cc2c2nc(-c3ccco3)nn12	6.60	–	30%	–	6.96	–	–	–	–	79	62%	19	128	–	–
O=C(Nc1cccc(Cl)c1)Nc1nc2nn(CCCc3ccccc3)cc2c2nc(-c3ccco3)nn12	5.82	–	20%	–	6.69	–	–	–	–	> 234	–	–	75	–	50%
COc1ccc(NC(=O)Nc2nc3nn(CCc4ccccc4)cc3c3nc(-c4ccco4)nn23)cc1	6.70	–	37%	–	6.91	7.91	–	–	–	872	81%	136	951	–	–
Nc1nc2nn(CCc3ccccc3)cc2c2nc(-c3ccco3)nn12	9.00	–	12%	–	9.51	–	–	–	–	–	5%	–	–	–	–
CCn1cc2c(nc(N)n3nc(-c4ccco4)nc23)n1	8.30	–	1%	–	8.72	–	–	–	–	0.03	3%	0.0014	0.003	–	–
